# In patent publication US4699928A, “Fluoroallylamine derivatives” (Merrell Dow Pharmaceuticals Inc., priority 1986, dated 1987):
# Assays:
# MAO = test: Inhibition of MAO ex vivo, p-tyramine as substrate; assay type: in vivo, male Sprague-Dawley rats; conditions: 18 h, 14C p-tyramine
# Experimental: The ability of a compound of Formula I to inhibit MAO can be determined ex vivo by the following procedure:
# The test compound is administered orally (p.o.) to 300-350 g male Sprague-Dawley rats (Charles River, France) and the animals are killed 18 hours after treatment. The brain, heart, liver and/or duodenum is removed and either a crude homogenate or a mitochondrial fraction, described in Example 5, Part (A), is prepared. MAO activity is determined in the homogenates using ^14 C p-tyramine, as the substrate. Table III gives the results of the testing of (Z)-2-(2',4'-dichlorophenoxy)methyl-3-fluoroallylamine according to the above described procedure. Selectivity can be determined by repeating the above-described test using either ^14 C […] (for MAO-A) or ^14 C phenethylamine (for MAO-B) as the substrate for determining the percentage inhibition.
# [1] = test system: heart monoamines and their metabolites; test: Inhibition of MAO in vivo: heart monoamines and their metabolites (HPLC); design: species or system male Sprague-Dawley rats; NE, Table V (heart) / DOPAC, Table V (heart) / 5HT, Table V (heart) / 5HIAA, Table V (heart): unit not given beside the values; conditions: for 5HIAA, Table V (heart) / DOPAC, Table V (heart) / NE, Table V (heart) / HVA, Table V (heart) / 5HT, Table V (heart): 18 h; for 5HIAA, Table V (heart): control 7 ± 1; for DOPAC, Table V (heart): control 78 ± 22; for NE, Table V (heart): control 735 ± 100; for HVA, Table V (heart): control 38 ± 9; for 5HT, Table V (heart): control 808 ± 50
# Experimental: The ability of a compound of Formula I to inhibit MAO can be determined in vivo using brain and heart samples obtained from the ex vivo study reported in Example 9. Monoamines and their deaminated metabolites were determined by HPLC with electrochemical detection by the method of J. Wagner et al, J. Neurochem. 38 1241-1254.
# When (Z)-2-(2',4'-dichlorophenoxy)methyl-3-fluoroallylamine is tested according to the above-described procedure, the results given in Tables IV and V are obtained. In these tables the following abbreviations are used: […]
smiles,measurement,setting,value
"NC/C(=C/F)COc1ccc(Cl)cc1Cl [(z)-2-(2',4'-dichlorophenoxy)methyl-3-fluoroallylamine]","% Inhibition, Brain (1)",MAO; 1 mg/kg po,41%
same,"% Inhibition, Duodenum (1)",MAO; 1 mg/kg po,10%
same,"% Inhibition, Heart (1)",MAO; 1 mg/kg po,27%
same,"% Inhibition, Liver (1)",MAO; 1 mg/kg po,0%
same,"% Inhibition, Brain (1)",MAO; 2.5 mg/kg po,23%
same,"% Inhibition, Duodenum (1)",MAO; 2.5 mg/kg po,26%
same,"% Inhibition, Heart (1)",MAO; 2.5 mg/kg po,0%
same,"% Inhibition, Liver (1)",MAO; 2.5 mg/kg po,9%
same,"% Inhibition, Brain (1)",MAO; 5 mg/kg po,34%
same,"% Inhibition, Duodenum (1)",MAO; 5 mg/kg po,55%
same,"% Inhibition, Heart (1)",MAO; 5 mg/kg po,0%
same,"% Inhibition, Liver (1)",MAO; 5 mg/kg po,21%
same,"% Inhibition, Brain (1)",MAO; 10 mg/kg po,55%
same,"% Inhibition, Duodenum (1)",MAO; 10 mg/kg po,57%
same,"% Inhibition, Heart (1)",MAO; 10 mg/kg po,0%
same,"% Inhibition, Liver (1)",MAO; 10 mg/kg po,25%
same,"% Inhibition, Brain (1)",MAO; 25 mg/kg po,73%
same,"% Inhibition, Duodenum (1)",MAO; 25 mg/kg po,65%
same,"% Inhibition, Heart (1)",MAO; 25 mg/kg po,32%
same,"% Inhibition, Liver (1)",MAO; 25 mg/kg po,55%
same,"5HIAA, Table V (heart)",[1]; 1 mg/kg p.o.,16 ± 4
same,"DOPAC, Table V (heart)",[1]; 1 mg/kg p.o.,56 ± 11
same,"NE, Table V (heart)",[1]; 1 mg/kg p.o.,741 ± 56
same,"HVA, Table V (heart)","[1]; 1 mg/kg p.o., p <0.02",71 ± 6
same,"5HT, Table V (heart)","[1]; 1 mg/kg p.o., spread ± 79",1017
same,"5HIAA, Table V (heart)",[1]; 2.5 mg/kg p.o.,7 ± 1
same,"HVA, Table V (heart)",[1]; 2.5 mg/kg p.o.,53 ± 8
same,"DOPAC, Table V (heart)",[1]; 2.5 mg/kg p.o.,46 ± 12
same,"NE, Table V (heart)",[1]; 2.5 mg/kg p.o.,762 ± 20
same,"5HT, Table V (heart)","[1]; 2.5 mg/kg p.o., spread ± 108",995
same,"5HIAA, Table V (heart)",[1]; 5 mg/kg p.o.,20 ± 6
same,"HVA, Table V (heart)",[1]; 5 mg/kg p.o.,60 ± 16
same,"DOPAC, Table V (heart)",[1]; 5 mg/kg p.o.,56 ± 7
same,"NE, Table V (heart)",[1]; 5 mg/kg p.o.,875 ± 53
same,"5HT, Table V (heart)","[1]; 5 mg/kg p.o., spread ± 154",1018
same,"5HIAA, Table V (heart)",[1]; 10 mg/kg p.o.,14 ± 2
same,"HVA, Table V (heart)",[1]; 10 mg/kg p.o.,55 ± 3
same,"DOPAC, Table V (heart)",[1]; 10 mg/kg p.o.,62 ± 5
same,"NE, Table V (heart)",[1]; 10 mg/kg p.o.,729 ± 58
same,"5HT, Table V (heart)","[1]; 10 mg/kg p.o., spread ± 82",850
same,"DOPAC, Table V (heart)",[1]; 25 mg/kg p.o.,87 ± 27
same,"NE, Table V (heart)",[1]; 25 mg/kg p.o.,765 ± 50
same,"5HIAA, Table V (heart)","[1]; 25 mg/kg p.o., p <0.02",26 ± 4
same,"HVA, Table V (heart)","[1]; 25 mg/kg p.o., p <0.02",65 ± 4
same,"5HT, Table V (heart)","[1]; 25 mg/kg p.o., spread ± 113",685
same,"monoamines or their metabolites in the heart, in words",[1]; 1-25 mg/kg p.o.,no consistent changes
